Assay results reported in PubChem BioAssay (NCI).
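GI50: concentration for 50% inhibition of growth. The concentration for full growth arrest is given as TGI.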

Assays:
Assay in all cases: NCI tumour cell line growth inhibition, 384-well format
[1] = tested on: CAKI-1 renal
[2] = tested on: HL-60(TB) leukemia
[3] = tested on: HS 578T breast
[4] = tested on: IGROV1 ovarian
[5] = tested on: K-562 leukemia
[6] = tested on: M14 melanoma
[7] = tested on: MOLT-4 leukemia
[8] = tested on: NCI/ADR-RES ovarian
[9] = tested on: OVCAR-3 ovarian
[10] = tested on: OVCAR-4 ovarian
[11] = tested on: SF-295 CNS
[12] = tested on: SR leukemia
[13] = tested on: TK-10 renal

## NC(=O)c1cccc2cn(-c3ccc([C@@H]4CCCNC4)cc3)nc12
[1]
  GI50: 11.1 µM
  TGI: 23.3 µM
[2]
  GI50: 1.85 µM
  TGI: 3.88 µM
[3]
  GI50: 10.1 µM
  TGI: 21.9 µM
[4]
  GI50: 12.9 µM
  TGI: 27.2 µM
[5]
  GI50: 10.1 µM
  TGI: 21.8 µM
[6]
  GI50: 4.68 µM
  TGI: 15.8 µM
[7]
  GI50: 1.49 µM
  TGI: 2.83 µM
[8]
  GI50: 13.5 µM
  TGI: 29.6 µM
[9]
  GI50: 18.3 µM
  TGI: 33 µM
[10]
  GI50: 25.2 µM
  TGI: 44.5 µM
[11]
  GI50: 2.64 µM
  TGI: 7.79 µM
[12]
  GI50: 0.805 µM
  TGI: 2.18 µM
[13]
  GI50: 16.2 µM
  TGI: 34 µM
